Entries after “also recorded” stand apart in the source; their conditions may differ. Like-named read-outs stand apart in the source and are kept apart here.
Legend:
[1] = target: T1, Cys1-hGrb2 anchor probe and EGFP-Sos-Cterm detectable probe (Homo sapiens, UniProt P62993); experiment: redistribution trap: CHO cells expressing Cys1-hGrb2 anchor probe and EGFP-Sos-Cterm detectable probe; assay type: cell-based; conditions: control cells with EGFP-Sos-Cterm alone, PMA
T1 construct: the 90 N-terminal amino acids of human PKCgamma (the Cys1 domain); expressed in transfected cells; host or cells: CHO
T1 sequence (P62993 whole entry, looked up, the tested form may be a part): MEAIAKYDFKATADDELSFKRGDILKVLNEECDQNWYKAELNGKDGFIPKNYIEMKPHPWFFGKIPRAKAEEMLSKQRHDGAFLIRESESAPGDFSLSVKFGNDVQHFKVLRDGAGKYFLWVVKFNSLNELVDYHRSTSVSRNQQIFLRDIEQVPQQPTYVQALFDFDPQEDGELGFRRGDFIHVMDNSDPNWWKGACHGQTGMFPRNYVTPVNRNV
Protocol: (§1) This example describes the creation of another cell line suitable for screening compounds against the interaction between Grb2 and the C-terminal sequence of Sos (amino acids 1067 to 1332 of Sos). This is the same interaction pair described in Example 6, except that the anchor probe is based upon the Cys1 domain of protein kinase C isoform gamma, and therefore locates in unstimulated cells throughout the cytoplasm and nucleus. When these cells are treated with 100 nM PMA the anchor probe redistributes to the plasma membrane, and if an interaction occurs between anchor and detectable probes, the GFP fluorescence will also be seen to redistribute to the plasma membrane. […] Treatment with PMA is used to confirm that an interaction between anchor and detectable probes occurs in this system, since redistribution of fluorescence to the plasma membrane can only occur if interaction of the two probes has first taken place. This can be checked in CHO cells transfected with EGFP-Sos-Cterm alone, where PMA has no effect on the distribution of fluorescence.
(§2) CHO cells are stably co-transfected with the anchor probe Cys1-hGrb2 and the GFP-labelled detectable probe EGFP-Sos-Cterm as described in Example 2 and Example 6. […] The majority of cells in before PMA treatment have a rather general cytoplasmic and nuclear distribution of fluorescence. […]

[2] = target: T2, Cys1-hGrb2 anchor probe and EGFP-Sos-Cterm detectable probe (Homo sapiens, UniProt P05129+P62993); experiment: as above; assay type: cell-based; conditions: 100 nM PMA, 5 minutes
T2 construct: the 90 N-terminal amino acids of human PKCgamma (the Cys1 domain); expressed in transfected cells; host or cells: CHO
Protocol: as §1, §2

[3] = target: T3, Cys1 domain of PKCgamma (Cys1-EGFP) (Homo sapiens, UniProt P05129); experiment: redistribution of Cys1-EGFP to the plasma membrane in CHO cells; assay type: cell-based; conditions: 100 nM PMA, 5 minutes
T3 construct: the 90 N-terminal amino acids of human PKCgamma (the Cys1 domain); expressed in transfected cells; host or cells: CHO
Protocol: Time-lapse images of CHO cells expressing Cys1-EGFP, the fusion of EGFP to the C-terminal of the cys1 domain from human protein kinase C isoform gamma, before (a) and after 5 minutes treatment with 100 nM PMA.

[4] = target: T4, HSPDE4A4-SosA anchor probe and hGrb2-EGFP detectable probe (Homo sapiens, UniProt P27815+Q07890); experiment: redistribution trap: CHO cells co-transfected with HSPDE4A4-SosA anchor probe and hGrb2-EGFP detectable probe; assay type: cell-based; conditions: 10 μM RP73401 for 75 minutes in presence of 10 micromolar rolipram
T4 construct: expressed in transfected cells; host or cells: CHO
T4 sequence (P27815+Q07890 fused): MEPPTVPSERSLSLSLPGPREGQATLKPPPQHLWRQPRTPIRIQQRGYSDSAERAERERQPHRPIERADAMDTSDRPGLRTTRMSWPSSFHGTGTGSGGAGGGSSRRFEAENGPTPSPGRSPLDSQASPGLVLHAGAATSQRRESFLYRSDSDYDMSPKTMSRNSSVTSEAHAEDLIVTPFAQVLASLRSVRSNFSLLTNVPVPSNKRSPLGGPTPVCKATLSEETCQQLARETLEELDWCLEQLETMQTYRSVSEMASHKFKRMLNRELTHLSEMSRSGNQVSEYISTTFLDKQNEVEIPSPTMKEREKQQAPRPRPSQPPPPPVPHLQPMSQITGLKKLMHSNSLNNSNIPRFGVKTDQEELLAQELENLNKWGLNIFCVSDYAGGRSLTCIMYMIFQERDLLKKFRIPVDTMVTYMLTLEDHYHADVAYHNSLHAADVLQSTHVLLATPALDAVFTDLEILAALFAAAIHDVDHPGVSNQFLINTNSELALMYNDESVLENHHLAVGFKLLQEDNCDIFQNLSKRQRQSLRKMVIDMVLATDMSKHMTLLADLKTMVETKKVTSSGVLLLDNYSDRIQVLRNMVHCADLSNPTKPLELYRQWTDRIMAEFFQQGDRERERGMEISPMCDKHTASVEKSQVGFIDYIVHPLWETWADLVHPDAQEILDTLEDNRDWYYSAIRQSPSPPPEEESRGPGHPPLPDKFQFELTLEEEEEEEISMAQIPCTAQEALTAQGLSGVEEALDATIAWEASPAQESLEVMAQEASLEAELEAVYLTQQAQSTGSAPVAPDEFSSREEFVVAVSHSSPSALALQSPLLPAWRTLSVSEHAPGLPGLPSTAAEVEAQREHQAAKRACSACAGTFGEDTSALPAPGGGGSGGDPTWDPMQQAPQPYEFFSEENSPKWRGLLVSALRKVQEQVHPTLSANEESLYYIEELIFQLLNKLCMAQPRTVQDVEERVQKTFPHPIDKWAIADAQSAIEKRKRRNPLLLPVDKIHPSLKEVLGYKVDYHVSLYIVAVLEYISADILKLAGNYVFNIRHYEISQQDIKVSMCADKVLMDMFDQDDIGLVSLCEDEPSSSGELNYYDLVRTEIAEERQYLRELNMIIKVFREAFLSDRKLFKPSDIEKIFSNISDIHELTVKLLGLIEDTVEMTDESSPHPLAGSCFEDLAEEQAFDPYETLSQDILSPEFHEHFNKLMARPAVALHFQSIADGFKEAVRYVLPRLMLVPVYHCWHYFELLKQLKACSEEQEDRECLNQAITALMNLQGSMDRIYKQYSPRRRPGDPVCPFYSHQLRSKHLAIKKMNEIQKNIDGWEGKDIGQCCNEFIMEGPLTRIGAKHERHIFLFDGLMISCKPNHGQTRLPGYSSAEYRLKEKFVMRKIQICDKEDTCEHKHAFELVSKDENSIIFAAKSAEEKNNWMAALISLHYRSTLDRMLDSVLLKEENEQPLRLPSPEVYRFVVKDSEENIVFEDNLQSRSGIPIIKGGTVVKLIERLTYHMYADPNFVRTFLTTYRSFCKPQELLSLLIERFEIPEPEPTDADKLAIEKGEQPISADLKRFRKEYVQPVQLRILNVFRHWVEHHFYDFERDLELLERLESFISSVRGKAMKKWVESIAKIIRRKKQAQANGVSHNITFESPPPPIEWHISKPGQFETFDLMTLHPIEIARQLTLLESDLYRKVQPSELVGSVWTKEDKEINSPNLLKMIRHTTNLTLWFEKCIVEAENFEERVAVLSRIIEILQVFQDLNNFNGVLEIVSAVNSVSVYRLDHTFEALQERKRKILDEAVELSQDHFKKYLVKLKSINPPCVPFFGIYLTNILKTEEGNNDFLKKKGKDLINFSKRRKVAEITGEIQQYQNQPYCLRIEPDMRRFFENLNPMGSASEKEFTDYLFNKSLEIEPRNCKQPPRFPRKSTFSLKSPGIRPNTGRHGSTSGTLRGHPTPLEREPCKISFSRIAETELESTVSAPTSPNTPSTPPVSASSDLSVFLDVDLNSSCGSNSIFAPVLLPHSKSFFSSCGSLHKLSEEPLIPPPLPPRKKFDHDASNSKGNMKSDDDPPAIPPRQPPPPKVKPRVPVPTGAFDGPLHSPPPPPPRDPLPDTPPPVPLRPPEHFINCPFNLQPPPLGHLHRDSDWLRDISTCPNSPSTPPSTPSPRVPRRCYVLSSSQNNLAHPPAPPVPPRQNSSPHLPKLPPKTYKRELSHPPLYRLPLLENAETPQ
T4 sequence (P62993 whole entry partner): as the sequence (P62993 whole entry, looked up, the tested form may be a part) above
Description: Sos is a guanine nucleotide exchange factor responsible for activation Ras-like GTPases, Grb2 an adaptor component responsible for recuiting Sos to the activated receptor. In this example the anchor probe is based on HSPDE4A4. CHO cells are stably co-transfected with anchor probe HSPDE4A4-SosA and “detectable” probe hGrb2-EGFP as described in Example 2 and Example 3. The anchor probe is selected for with zeocin, and the detectable probe with neomycin (G418). […] The transfected cells are a mixed non-clonal population.
The transfected cells are a mixed non-clonal population.

[5] = target: PDE4A4 (Homo sapiens, UniProt P27815); experiment: formation of dense aggregates (spots) of PDE4A4 in transfected CHO cells; conditions: read-out: EC50 for formation of dense PDE4A4 aggregates (spots) in the cytoplasm
Sequence of PDE4A4 (P27815 whole entry): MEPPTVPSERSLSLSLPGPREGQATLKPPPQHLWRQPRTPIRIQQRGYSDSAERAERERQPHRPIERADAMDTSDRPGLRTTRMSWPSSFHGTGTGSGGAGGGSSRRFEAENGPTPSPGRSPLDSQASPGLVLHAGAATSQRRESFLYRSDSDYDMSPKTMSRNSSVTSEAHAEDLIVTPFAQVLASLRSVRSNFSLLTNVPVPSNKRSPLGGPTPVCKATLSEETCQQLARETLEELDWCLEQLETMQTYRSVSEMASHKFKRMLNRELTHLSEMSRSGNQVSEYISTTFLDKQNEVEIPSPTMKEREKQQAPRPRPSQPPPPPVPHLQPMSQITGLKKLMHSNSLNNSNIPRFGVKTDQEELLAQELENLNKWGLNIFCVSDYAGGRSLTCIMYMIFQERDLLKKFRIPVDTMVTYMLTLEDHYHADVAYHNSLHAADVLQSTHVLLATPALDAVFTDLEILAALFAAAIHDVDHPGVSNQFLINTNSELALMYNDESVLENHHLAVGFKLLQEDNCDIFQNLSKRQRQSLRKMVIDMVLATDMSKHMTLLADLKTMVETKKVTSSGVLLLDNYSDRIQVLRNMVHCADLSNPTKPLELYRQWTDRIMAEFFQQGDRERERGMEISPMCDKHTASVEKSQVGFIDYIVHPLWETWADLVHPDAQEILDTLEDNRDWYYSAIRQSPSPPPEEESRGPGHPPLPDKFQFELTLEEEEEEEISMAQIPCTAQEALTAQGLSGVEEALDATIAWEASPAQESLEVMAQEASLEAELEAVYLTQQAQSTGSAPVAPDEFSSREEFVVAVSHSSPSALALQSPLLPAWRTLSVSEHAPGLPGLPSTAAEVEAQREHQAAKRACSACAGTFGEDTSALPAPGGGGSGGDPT
Protocol: The amount of fluorescent spots and other accumulations of a transfected probe in a population of cells can be imaged and quantified in an automated fashion to yield a measure of mean number of spots per cell. For this purpose cells are cultured to near 80% to 90% confluence in coverglass chambers or plastic 96-well plates, given the relevant treatment and allowed to respond. At the end of the response period, cells are chemically fixed in 4% formaldehyde buffer (Lillies fixative buffer, pH7.4: Bie and Berntsen A/S, Denmark) for 30 minutes to 2 hours, and then washed three times in phosphate buffered saline (PBS, Life Technologies, Denmark). An alternative simultaneous fixation+permeabilisation method, useful to remove non-localised (i.e. mobile) GFP probe from the cytoplasm, involves a single fixation process incorporating 0.4% to 2% formaldehyde buffer (10% to 50% strength Lillies fixative) plus 0.2% to 1% Triton X-100. The actual concentrations used need to be optimised for the cell type being used; for CHO cells 2% formaldehyde+1% Triton X-100 gives excellent results. The combined fixative+detergent are applied to the cells for 10 to 20 minutes at room temperature. Cells are then washed three times with phosphate buffered saline. […] Fluorescence illumination comes from a 100 W HBO lamp. […]

[6] = tested on: PKAcat-GFP; experiment: forskolin induced PKAcat-GFP translocation quantified by extraction procedure, FLIPR; assay type: cell-based; conditions: Homo sapiens
Protocol: Upon increase in cellular cAMP (e.g. by stimulation of adenylate cyclase activity by forskolin) PKAcat dissociates from its regulatory subunits and spots “dissolves” into the cytosol. The total GFP intensity measured after removing cytosolic PKAcat-GFP through the extraction procedure is indicative of the level of non-activated, non-dissociated PKAcat.
In this example the extraction procedure is used to quantify a forskolin dose response in a PKAcat-GFP assay.
Cells are treated with forskolin in various conc. for 15 min. (remove spots). Cells are extracted (Formalin 0.2%/Triton-x 0.2%). Signal is read in FLIPR.
Dose response on the effect of forskolin to stimulate PKA translocation.

[7] = tested on: CHO cells stably expressing HSPDE4A4B-GFP; experiment: cellular cAMP content (kit RPA538) in CHO cells stably expressing HSPDE4A4B-GFP; assay type: cell-based, Chinese hamster; conditions: rolipram 0.03 μM to 3 μM, 16 to 18 hours
Protocol: (§3) After the incubation period, cAMP content is measured using a commercial kit from Amersham-Pharmacia Biotech, kit # RPA538, according to the manufacturers instructions.
(§4) The amount of cAMP/well was calculated using regression analysis from a cAMP standrad curve, as recommended by the manufacturers of the assay kit.
(§5) After the incubation period, cAMP content is measured using a commercial kit from Amersham-Pharnacia Biotech, kit # RPA538, according to the manufacturers instructions.
CHO cells stably expressing HSPDE4A4B-GFP (see Example 2), and untransfected CHO cells are seeded into individual wells of a 96-well microtiter plate at a density of 1.2×10^5 cells/well, and cultured for 16 to 18 hours in HAM F-12 medium with glutamax, 100 μg penicillin-streptomycin mixture ml^−1 and 10% FBS. […] After the treatment period, cAMP content is measured using a commercial kit from Amersham-Pharmacia Biotech, kit # RPA538, according to the manufacturers instructions.

[8] = tested on: untransfected CHO cells; experiment: cellular cAMP content (kit RPA538) in untransfected CHO cells; assay type: cell-based, Chinese hamster
Protocol: as §3, §4, §5
CHO cells stably expressing HSPDE4A4B-GFP (see Example 2), and untransfected CHO cells are seeded into individual wells of a 96-well microtiter plate at a density of 1.2×10^5 cells/well, and cultured for 16 to 18 hours in HAM F-12 medium with glutamax, 100 μg penicillin-streptomycin mixture ml^−1 and 10% FBS. After 16 to 18 hours incubation, cells are treated for 60 minutes with various concentrations of forskolin. After the treatment period, cAMP content is measured using a commercial kit from Amersham-Pharmacia Biotech, kit # RPA538, according to the manufacturers instructions.

## CCCCCCCCCCCCCC(=O)O[C@@H]1[C@@H](C)[C@@]2(O)[C@@H](C=C(CO)C[C@]3(O)C(=O)C(C)=C[C@@H]23)[C@@H]2C(C)(C)[C@]12OC(C)=O [PMA, phorbol-12-myristate-13-acetate]
[1]
  distribution of fluorescence in CHO cells transfected with EGFP-Sos-Cterm alone: no effect
[2]
  redistribution of EGFP-Sos-Cterm fluorescence: measurable shift in fluorescence to the plasma membrane
[3]
  redistribution of Cys1-EGFP: redistributes from the cytoplasm and nucleus to the plasma membrane

## COc1ccc(C(=O)Nc2c(Cl)cncc2Cl)cc1OC1CCCC1 [RP73401, Piclamilast]
[4]
  effect on rolipram-induced GFP-bright spots: spots disappear; also recorded: dissolves rolipram-induced spots

## O=c1c2cccnc2n(-c2cccc([N+](=O)[O-])c2)c(=O)n1Cc1ccncc1 [RS25344]
[5]
  EC50: 20 nM

## C=C[C@@]1(C)CC(=O)[C@]2(O)[C@@]3(C)[C@@H](O)CCC(C)(C)[C@@H]3[C@H](O)[C@H](OC(C)=O)[C@@]2(C)O1 [forskolin]
[6]; 0.25 h, forskolin 15 min, extraction Formalin 0.2%/Triton-x 0.2%, FLIPR, read-out: ED50 of forskolin dose response in PKAcat-GFP assay
  EC50: ~3000 nM
[6]; FIG. 18 dose response, read-out: calculated EC50 for forskolin to stimulate PKA translocation
  EC50: 3280 nM

## COc1ccc(C2CNC(=O)C2)cc1OC1CCCC1 (stereo not shown) [rolipram]
[7]
  cellular cAMP concentration, rolipram treatment: no appreciable increase
[8]; 10 μM rolipram, probably not significant
  cellular cAMP, rolipram 10 μM: slight rise
[8]; rolipram 0.03 μM to 3 μM, 16 to 18 hours
  cellular cAMP concentration, rolipram treatment: no appreciable increase
